Experimental data published in patent US20130310256A1, “HERBICIDAL COMPOSITIONS COMPRISING 4-AMINO-3-CHLORO-5-FLUORO-6-(4-CHLORO-2-FLUORO-3-METHOXYPHENYL) PYRIDINE-2-CARBOXYLIC ACID OR A DERIVATIVE THEREOF AND VLCFA AND LIPID SYNTHESIS INHIBITING HERBICIDES” (DOW AGROSCIENCES LLC, priority 2008, published 2013).
Several values for one entry are separate records, joined by “and”; a condition that tells them apart may be missing. Identical values can stand only once.

Tests used:
BRAPP = experiment: Example I: postemergence foliar-applied weed control, direct seeded rice weeds, greenhouse; type: in vivo; settings: for Visual Weed Control Obs: 20 DAA; for Visual Weed Control (%) - 22 DAA BRAPP Obs: foliar
Summary of the method: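 Plants grown in loam/sandy loam–calcareous grit soil (80:20) in greenhouse, 14 hr photoperiod, about 29° C. day/26° C. night, treated postemergence at first to fourth true leaf stage. Foliar spray at 187 L/ha with 1.25% (v/v) crop oil concentrate; Compound A dosed on acid equivalent basis, partners on active ingredient basis.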

DIGSA = experiment: Example I: postemergence foliar-applied weed control, greenhouse; type: in vivo, Digitaria sanguinalis (L.) Scop. (large crabgrass); settings: 20 DAA
Excerpt: Seeds or nutlets of the desired test plant species were planted in a soil matrix prepared by mixing a loam or sandy loam soil (e.g., 28.6 percent silt, 18.8 percent clay, and 52.6 percent sand, with a pH of about 5.8 and an organic matter content of about 1.8 percent) and calcareous grit in an 80 to 20 ratio. The soil matrix was contained in plastic pots with a volume of 1 quart and a surface area of 83.6 square centimeters (cm^2). When required to ensure good germination and healthy plants, a fungicide treatment and/or other chemical or physical treatment was applied. The plants were grown for 8-22 days in a greenhouse with an approximate 14 hr photoperiod which was maintained at about 29° C. during the day and 26° C. during the night. Nutrients (Peters Excel® 15-5-15 5-Ca 2-Mg and iron chelate) were applied in the irrigation solution as needed and water was added on a regular basis. Supplemental lighting was provided with overhead metal halide 1000-Watt lamps as necessary. The plants were employed for testing when they reached the first through fourth true leaf stage.
Treatments consisted of the acid or esters of 4-amino-3-chloro-5-fluoro-6-(4-chloro-2-fluoro-3-methoxy-phenyl)pyridine-2-carboxylic acid (Compound A), each formulated as an SC (suspension concentrate), and various herbicidal components alone and in combination. Forms of compound A were applied on an acid equivalent basis.
Other herbicidal components were applied on an active ingredient basis and included very long chain fatty acid (VLCFA) synthesis-inhibiting and fatty acid/lipid synthesis-inhibiting herbicides acetochlor (technical grade material), acetochlor+dichlormid formulated as Topnotch®, pretilachlor (technical grade material), butachlor formulated as Butachlor EC, fentrazamide formulated as Fentrazamide EC, thiobencarb formulated as Bolero® 8EC, cafenstrole formulated as Himeadow® WP or Lapost® Flowable, benfuresate formulated as Full Shot®, dimethenamid-P formulated as Outlook®, indanofan (technical grade material), flufenacet formulated as Define® DF, mefenacet (technical grade material), S-metolachlor formulated as Dual® II Magnum, pethoxamid formulated as Successor® 600, and pyroxasulfone (technical grade material).
Treatment requirements were calculated based upon the rates being tested, the concentration of active ingredient or acid equivalent in the formulation, and a 12 mL application volume at a rate of 187 L/ha.
For treatments comprised of formulated compounds, measured amounts of compounds were placed individually in 25 mL glass vials and diluted in a volume of 1.25% (v/v) Agri-Dex® crop oil concentrated to obtain 12× stock solutions. […] Application solutions were prepared by adding an appropriate amount of each stock solution (e.g., 1 mL) and diluted to the appropriate final concentrations with the addition of 10 mL of an aqueous mixture of 1.25% (v/v) crop oil concentrate so that the final spray solutions contained 1.25+/−0.05% (v/v) crop oil concentrate.
For treatments comprised of technical compounds, weighed amounts can be placed individually in 25 mL glass vials and dissolved in a volume of 97:3 v/v acetone/DMSO to obtain 12× stock solutions. […] Application solutions can be prepared by adding an appropriate amount of each stock solution (e.g., 1 mL) and diluted to the appropriate final concentrations with the addition of 10 mL of an aqueous mixture of 1.5% (v/v) crop oil concentrate so that the final spray solutions contain 1.25% (v/v) crop oil concentrate. When technical materials are used, the concentrated stock solutions can be added to the spray solutions so that the final acetone and DMSO concentrations of the application solutions are […], respectively. […]

## CCN(CC)C(=O)n1cnc(S(=O)(=O)c2c(C)cc(C)cc2C)n1 [Cafenstrole, N,N-diethyl-3-[(2,4,6-trimethylphenyl)sulfonyl]-1H-1,2,4-triazole-1-carboxamide]
BRAPP; 26.25 gai/ha Himeadow WP
  Visual Weed Control Obs: 0%
BRAPP; 52.5 gai/ha Himeadow WP
  Visual Weed Control Obs: 0%
BRAPP; 105 gai/ha Himeadow WP
  Visual Weed Control Obs: 0%

## COc1c(Cl)ccc(-c2nc(C(=O)O)c(Cl)c(N)c2F)c1F [Compound A Acid, 4-amino-3-chloro-6-(4-chloro-2-fluoro-3-methoxyphenyl)-5-fluoropyridine-2-carboxylic acid]
BRAPP; 4.38 gae/ha
  Visual Weed Control Obs: 50% and 60% and 75%
BRAPP; 8.75 gae/ha
  Visual Weed Control Obs: 70% and 80%
DIGSA; 4.38 gae/ha
  Visual Weed Control Obs: 30%
DIGSA; 17.5 gae/ha
  Visual Weed Control Obs: 40%

## COc1c(Cl)ccc(-c2nc(C(=O)OCc3ccccc3)c(Cl)c(N)c2F)c1F [Compound A Benzyl Ester, benzyl ester of 4-amino-3-chloro-5-fluoro-6-(4-chloro-2-fluoro-3-methoxy-phenyl)pyridine-2-carboxylic acid]
BRAPP; 8 gae/ha
  Visual Weed Control (%) - 22 DAA BRAPP Obs: 60% and 65%
BRAPP; 16 gae/ha
  Visual Weed Control (%) - 22 DAA BRAPP Obs: 60% and 80%
BRAPP; 4.38 gae/ha
  Visual Weed Control Obs: 60%
BRAPP; 8.75 gae/ha
  Visual Weed Control Obs: 65%
BRAPP; 32 gae/ha
  Visual Weed Control (%) - 22 DAA BRAPP Obs: 90% and 85%
DIGSA; 4.38 gae/ha
  Visual Weed Control Obs: 50% and 40%
DIGSA; 8.75 gae/ha
  Visual Weed Control Obs: 60% and 40% and 30%
DIGSA; 17.5 gae/ha
  Visual Weed Control Obs: 30%

## CCCOCCN(C(=O)CCl)c1c(CC)cccc1CC [Pretilachlor, 2-chloro-N-(2,6-diethylphenyl)-N-(2-propoxyethyl)acetamide]
BRAPP; 37.5 gai/ha
  Visual Weed Control Obs: 0%
BRAPP; 75 gai/ha
  Visual Weed Control Obs: 0%
BRAPP; 150 gai/ha
  Visual Weed Control Obs: 0%
DIGSA; 37.5 gai/ha
  Visual Weed Control Obs: 0%
DIGSA; 75 gai/ha
  Visual Weed Control Obs: 0%
DIGSA; 150 gai/ha
  Visual Weed Control Obs: 0%
